Results from patent US6348483B1, “Use of derivatives of methylene-bis-oxazolidine and compositions obtained thereby” (Air Liquide Sante (International), priority 1998, dated 2002).

Tests used:
Assay type in all cases: cell-based
Fungi suspension = test: Boko test in water-diluted cutting fluids, fungi suspension
Protocol: (§1) In separate batches, in each case 100 ml of the water-diluted cutting fluid to be preserved were admixed with various concentrations of the preservatives to be examined. The growth control used was in each case an unpreserved sample. Two days after the incorporation of the preservatives, the test batches were infected for the first time using 1 ml of an inoculating solution. The inoculating solution used was a suspension of the germs listed below (cultivated on nutrient media and then adapted to water-diluted cutting fluids). […] [table] The test batches were subsequently inoculated two times a week and plated onto agar plates two times per week, the first smear being carried out immediately prior to the new inoculation. The microbial growth on the smears was assessed after incubation at 25° C. for three days. […] The preservative effect of the individual product concentrations was assessed in a semiquantitative method by the colonization of the individual smears using the classification from − to +to +++. Growth was differentiated according to bacteria, yeasts and moulds. The test was usually carried out for twelve inoculation cycles or interrupted after repeated +++growth. The cutting fluids Shell Dromus BX or Almasol EP from Castrol or Rondocor Kompakt from Consulta were examined as 4% strength by weight emulsions in tap water from the city of Norderstedt. Inoculation was carried out using a suspension of bacteria or fungi or a mixed suspension of bacteria and fungi.

Bacteria suspension = test: Boko test in water-diluted cutting fluids, bacteria suspension
Protocol: as §1

Aspergillus niger (AN) = test: Fungicidal finish (SM 022) of pure acrylate house paint; conditions: for Fungicidal finish, colonization rating AN: without stress due to 72 hours leaching (so in the source)
Protocol: In separate batches, the test concentrations of the active compounds/products were incorporated into the house paint, and the fungicidal and/or algistatic finish was determined using the stated test methods.
Incorporation and testing were carried out according to the methods SM 022 and SM 023 below.
This laboratory method was used to determine the resistance of house coatings to fungal attack. For the method, house coatings on standardized paper were used as test substrate, and Aspergillus niger (ATCC 6275) and Penicillium funiculosum (ATCC 36839) were used as test fungi. The experiments were carried out in Petri dishes on dextrose nutrient medium.
50 g of the material to be finished were, in separate batches, mixed with various concentrations of the fungicide to be examined and homogenized for 3-5 min using a basket stirrer.
Paper carrier materials having the dimensions 90×270 mm (Schleicher & Schüll No. 2589 B/X 24078) were coated with the test material. The paint and/or render samples were coated to a wet-layer thickness of 250 μm by knife coating. […] In the case of renders, the layer thickness depended, as in practice, on the particle size. The coated carrier materials, hereinbelow referred to as test bodies, were subsequently dried in a horizontal position for five days.
The test bodies were watered in running tap water of 15±5° C. and a flow rate of 1 l/min for 72 hours and subsequently dried for two days. The cross section of the container for the watering in the direction of flow was 1000±500 cm^2.
From the pretreated test bodies, sample bodies having a diameter of 5 cm were punched out and sterilized in a Co^60 source using at least 10 kGy.
The Sabouraud dextrose agar, which had solidified in the Petri dish, was inoculated with 0.2 ml of spore suspension (10^7 spores/ml) and plated out using a sterile Drigalski spatula or an offset sterile glass rod.
The pretreated sample bodies were then evenly placed onto the inoculated surface of the nutrient medium using a pair of tweezers, making sure that the entire surface of the sample body was in contact with the surface of the nutrient medium. The sample was subsequently incubated at 30±2° C. for three weeks. For other test germs, the incubation temperature had to be adapted to achieve optimum growth.
After one, two and three weeks, the sample bodies were examined for fungal growth. Evaluation was carried out visually or—if this was required to exclude foreign infections—using a magnifying glass. If the extent of the colonization by foreign organisms observed considerably interfered with the evaluation, the experiment could not be evaluated and was repeated. The evaluation of the samples was based on the following evaluation scale:
00—entire plate free from colonization*
0—zone formation (no colonization around the sample)*
(0)—fungal colonization up to the sample*
1—only the sample edge is colonized*
2—the sample is colonized from the edge inwards (less than 25%)
3—the sample surface is colonized by individual colonies (25-75%)
4—the sample surface is colonized extensively (75% and more, but not the entire surface)
5—the sample surface is colonized completely (100%)
*Note: Samples evaluated as 00, 0, (0) and 1 can be referred to as “being effectively finished against fungal growth”.

[1] = tested on: Mixed suspension of bacteria and fungi; test: Boko test in water-diluted cutting fluids, mixed suspension
Protocol: as §1

[2] = Cutting fluid Almasol EP, use concentration 0.05% by weight
[3] = Cutting fluid Almasol EP, use concentration 0.10% by weight
[4] = Cutting fluid Almasol EP, use concentration 0.15% by weight
[5] = Cutting fluid Rondocor Kompakt, use concentration 0.05% by weight
[6] = Cutting fluid Rondocor Kompakt, use concentration 0.10% by weight
[7] = Cutting fluid Rondocor Kompakt, use concentration 0.15% by weight
[8] = Cutting fluid Shell Dromus BX, use concentration 0.05% by weight
[9] = Cutting fluid Shell Dromus BX, use concentration 0.10% by weight
[10] = Cutting fluid Shell Dromus BX, use concentration 0.15% by weight

CC1CN(CN2COC(C)C2)CO1 (stereo not shown) [Mar 71, 3,3′-methylenebis-(5-methyloxazolidine)]
Number of inoculation cycles passed on inoculation with Fungi suspension (Fungi suspension; [2]): >12
Number of inoculation cycles passed on inoculation with Fungi suspension (Fungi suspension; [3]): >12
Number of inoculation cycles passed on inoculation with Fungi suspension (Fungi suspension; [4]): >12
Number of inoculation cycles passed on inoculation with Fungi suspension (Fungi suspension; [5]): >12
Number of inoculation cycles passed on inoculation with Fungi suspension (Fungi suspension; [6]): >12
Number of inoculation cycles passed on inoculation with Fungi suspension (Fungi suspension; [7]): >12
Number of inoculation cycles passed on inoculation with Fungi suspension (Fungi suspension; [8]): >12
Number of inoculation cycles passed on inoculation with Fungi suspension (Fungi suspension; [9]): >12
Number of inoculation cycles passed on inoculation with Fungi suspension (Fungi suspension; [10]): >12
Number of inoculation cycles passed on inoculation with Bacteria suspension (Bacteria suspension; [2]): >12
Number of inoculation cycles passed on inoculation with Bacteria suspension (Bacteria suspension; [3]): >12
Number of inoculation cycles passed on inoculation with Bacteria suspension (Bacteria suspension; [4]): >12
Number of inoculation cycles passed on inoculation with Bacteria suspension (Bacteria suspension; [5]): >12
Number of inoculation cycles passed on inoculation with Bacteria suspension (Bacteria suspension; [6]): >12
Number of inoculation cycles passed on inoculation with Bacteria suspension (Bacteria suspension; [7]): >12
Number of inoculation cycles passed on inoculation with Bacteria suspension (Bacteria suspension; [8]): >12
Number of inoculation cycles passed on inoculation with Bacteria suspension (Bacteria suspension; [9]): >12
Number of inoculation cycles passed on inoculation with Bacteria suspension (Bacteria suspension; [10]): >12
Fungicidal activity (in words), AN (Aspergillus niger (AN); house paint test): no fungicidal activity in practice
Fungicidal finish, colonization rating AN (Aspergillus niger (AN); use conc. 0.5% W/W, 1. week): 5 (the sample surface is colonized completely (100%))
Fungicidal finish, colonization rating AN (Aspergillus niger (AN); use conc. 0.5% W/W, 2. week): 5 (the sample surface is colonized completely (100%))
Fungicidal finish, colonization rating AN (Aspergillus niger (AN); use conc. 1.0% W/W, 1. week): 5 (the sample surface is colonized completely (100%))
Fungicidal finish, colonization rating AN (Aspergillus niger (AN); use conc. 1.0% W/W, 2. week): 5 (the sample surface is colonized completely (100%))
Fungicidal finish, colonization rating AN (Aspergillus niger (AN); use conc. 2.0% W/W, 1. week): 5 (the sample surface is colonized completely (100%))
Fungicidal finish, colonization rating AN (Aspergillus niger (AN); use conc. 2.0% W/W, 2. week): 5 (the sample surface is colonized completely (100%))
Number of inoculation cycles passed on inoculation with Mixed suspension [1, 2]: 11
Number of inoculation cycles passed on inoculation with Mixed suspension [1, 3]: >12
Number of inoculation cycles passed on inoculation with Mixed suspension [1, 4]: 11
Number of inoculation cycles passed on inoculation with Mixed suspension [1, 5]: >12
Number of inoculation cycles passed on inoculation with Mixed suspension [1, 6]: >12
Number of inoculation cycles passed on inoculation with Mixed suspension [1, 7]: >12
Number of inoculation cycles passed on inoculation with Mixed suspension [1, 8]: 4
Number of inoculation cycles passed on inoculation with Mixed suspension [1, 9]: 11
Number of inoculation cycles passed on inoculation with Mixed suspension [1, 10]: >12
